{"source": "patent US12037345B2", "about": "“Heterobicyclic compounds for inhibiting the activity of SHP2” (TAIHO PHARMACEUTICAL CO., LTD., priority 2018, dated 2024)", "key": {"[1]": {"test_system": "pERK (phospho-p44/42 MAPK Thr202/Tyr204) in HCC827 cells", "assay": "Cellular pERK Inhibition Assay, Method B (PathScan phospho-p44/42 MAPK sandwich ELISA)", "type": "cell-based", "conditions": "Homo sapiens, Table 20, read-out: pERK (IC50, μM) Method B", "procedure": "Cellular pERK Inhibition Assay\nHCC827 cells (ATCC, Manassas, USA) were seeded into 96-well plates at a density of 1×10^5 cells/well in RPMI medium supplemented with 10% FBS and incubated 24h. Compounds were diluted first in DMSO and then into serum-free medium, before being added to cells in triplicate to give a final concentration of 0.1% DMSO. Plates were incubated at 37° C. for the indicated time in a humidified atmosphere of 5% CO2 in air.\nFollowing compound treatment, medium was removed and cells were lysed by adding 50 μL of lysis buffer (Cell Signalling Technology, Beverly, USA) to each well. Plates were then incubated at room temperature for 25 minutes with shaking. pERK levels were measured in lysates using the PathScan(Registered Trademark) phospho-p44/42 MAPK (Thr202/Tyr204) sandwich ELISA (Cell Signalling Technology, Beverly, USA) as per kit instructions. Briefly, 50 μL of cell lysate was added to 50 μL of ELISA sample diluent in a 96-well ELISA plate and incubated overnight at 4° C. Following washing, 100 μL of detection antibody was added per well and the plates incubated for 1 hour at 37° C. Plates were washed again and incubated at 37° C. for 30 minutes with 100 μl of HRP-linked secondary antibody per well. After final washing, 100 μL per well of TMB substrate was added and plates incubated at 37° C. to develop colour. Colour development was stopped by the addition of 100 μL per well of stop solution. Plates were read at 450 nm on a SpectraMax Gemini reader (Molecular Devices, Uckfield, UK).\nThe average signal from blank wells (no cells added) was subtracted from the signals from each sample well. Levels of pERK were then expressed as “percent of control”, using DMSO treated samples as control. Dose response curves were generated using GraphPad Prism Version 6 (GraphPad Software, La Jolla, USA) and fitted using the four parameter logistic curve fit."}, "SHP2": {"target": "SHP2 (Homo sapiens (Human), UniProt Q06124)", "sequence (Q06124 whole entry)": "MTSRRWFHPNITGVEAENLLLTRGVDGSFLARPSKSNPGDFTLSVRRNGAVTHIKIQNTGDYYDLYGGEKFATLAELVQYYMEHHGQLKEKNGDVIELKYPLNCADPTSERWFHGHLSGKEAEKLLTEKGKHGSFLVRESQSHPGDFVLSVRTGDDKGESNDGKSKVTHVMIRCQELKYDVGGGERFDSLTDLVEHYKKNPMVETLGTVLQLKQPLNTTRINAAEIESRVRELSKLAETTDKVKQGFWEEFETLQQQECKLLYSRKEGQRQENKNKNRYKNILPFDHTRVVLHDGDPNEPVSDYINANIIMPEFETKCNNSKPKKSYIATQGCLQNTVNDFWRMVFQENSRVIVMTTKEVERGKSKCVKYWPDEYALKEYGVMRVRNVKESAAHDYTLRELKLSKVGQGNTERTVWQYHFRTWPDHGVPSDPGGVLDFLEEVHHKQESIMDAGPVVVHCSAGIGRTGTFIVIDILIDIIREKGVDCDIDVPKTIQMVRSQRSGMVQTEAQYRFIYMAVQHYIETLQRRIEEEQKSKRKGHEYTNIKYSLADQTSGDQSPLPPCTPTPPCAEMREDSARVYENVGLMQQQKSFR", "assay": "SHP2 Biochemical Assay (DiFMUP conversion, pIRS1-activated)", "conditions": "Table 20", "procedure,_shortened": "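Rates of DiFMU formation were followed 30 min at ex 360/em 450 nm, with 50 μM DiFMUP, 10 pM SHP2 and pIRS1 peptide ([…]) after 30 min compound pre-incubation at pH 7.0 Bis-Tris propane. Four-parameter logistic IC50s in singlicate; repeat runs averaged.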"}}, "note": "Structures can show the parent of a compound that is named as a salt.", "data": [{"smiles": "CCn1cc2ccc(-c3c[nH]c4nc(N5CCC6(CC5)COC[C@H]6N)n(C)c(=O)c34)c(Cl)c2n1", "note": "[Example 182, 2-[(4S)-4-amino-2-oxa-8-azaspiro[4.5]decan-8-yl]-5-(7-chloro-2-ethyl-2H-indazol-6-yl)-3-methyl-3H,4H,7H-pyrrolo[2,3-d]pyrimidin-4-one hydrochloride]", "values": [{"measurement": "IC50", "setting": "[1]", "result": 2.2, "unit": "µM"}, {"measurement": "IC50", "setting": "SHP2", "result": 36, "unit": "nM"}]}, {"smiles": "CCn1cc2ccc(-c3c[nH]c4nc(N5CCC6(CC5)COC[C@H]6N)n(C)c(=O)c34)c(F)c2n1", "note": "[Example 184, 2-[(4S)-4-amino-2-oxa-8-azaspiro[4.5]decan-8-yl]-5-(2-ethyl-7-fluoro-2H-indazol-6-yl)-3-methyl-3H,4H,7H-pyrrolo[2,3-d]pyrimidin-4-one hydrochloride]", "values": [{"measurement": "IC50", "setting": "[1]", "result": 1.1, "unit": "µM"}, {"measurement": "IC50", "setting": "SHP2", "result": 70, "unit": "nM"}]}, {"smiles": "Cn1c(N2CC[C@H](N)[C@H](F)C2)nc2[nH]cc(-c3ccc4ncsc4c3Cl)c2c1=O", "note": "[Example 187, 2-[(3R,4S)-4-amino-3-fluoropiperidin-1-yl]-5-(7-chloro-1,3-benzothiazol-6-yl)-3-methyl-3H,4H,7H-pyrrolo[2,3-d]pyrimidin-4-one hydrochloride]", "values": [{"measurement": "IC50", "setting": "[1]", "result": 0.8, "unit": "µM"}, {"measurement": "IC50", "setting": "SHP2", "result": 51, "unit": "nM"}]}, {"smiles": "Cn1cc2c(Cl)c(-c3c[nH]c4nc(N5[C@H]6CCNC[C@@H]5CC6)n(C)c(=O)c34)ccc2n1", "note": "[Example 188, 5-(4-chloro-2-methyl-2H-indazol-5-yl)-2-[(1S,6R)-3,9-diazabicyclo[4.2.1]nonan-9-yl]-3-methyl-3H,4H,7H-pyrrolo[2,3-d]pyrimidin-4-one hydrochloride]", "values": [{"measurement": "IC50", "setting": "[1]", "result": 0.56, "unit": "µM"}, {"measurement": "IC50", "setting": "SHP2", "result": 41, "unit": "nM"}]}, {"smiles": "Cn1cc2c(Cl)c(-c3c[nH]c4nc(N5[C@@H]6CCNC[C@H]5CC6)n(C)c(=O)c34)ccc2n1", "note": "[Example 189, 5-(4-chloro-2-methyl-2H-indazol-5-yl)-2-[(1R,6S)-3,9-diazabicyclo[4.2.1]nonan-9-yl]-3-methyl-3H,4H,7H-pyrrolo[2,3-d]pyrimidin-4-one hydrochloride]", "values": [{"measurement": "IC50", "setting": "[1]", "result": 0.23, "unit": "µM"}, {"measurement": "IC50", "setting": "SHP2", "result": 19, "unit": "nM"}]}, {"smiles": "C[C@@H]1OCC2(CCN(c3nc4[nH]cc(-c5cc(F)c6nn(C)cc6c5Cl)c4c(=O)n3C)CC2)[C@@H]1N", "note": "[Example 194, 2-[(3S,4S)-4-amino-3-methyl-2-oxa-8-azaspiro[4.5]decan-8-yl]-5-(4-chloro-7-fluoro-2-methyl-2H-indazol-5-yl)-3-methyl-3H,4H,7H-pyrrolo[2,3-d]pyrimidin-4-one hydrochloride]", "values": [{"measurement": "IC50", "setting": "[1]", "result": 0.043, "unit": "µM"}, {"measurement": "IC50", "setting": "SHP2", "result": 16, "unit": "nM"}]}, {"smiles": "Cn1cc2c(Cl)c(-c3c[nH]c4nc(N5[C@H]6CC[C@@H]5[C@](C)(N)C6)n(C)c(=O)c34)ccc2n1", "note": "[Example 195, 2-[(endo)-2-amino-2-methyl-7-azabicyclo[2.2.1]heptan-7-yl]-5-(4-chloro-2-methyl-2H-indazol-5-yl)-3-methyl-3H,4H,7H-pyrrolo[2,3-d]pyrimidin-4-one hydrochloride]", "values": [{"measurement": "IC50", "setting": "[1]", "result": 0.045, "unit": "µM"}, {"measurement": "IC50", "setting": "SHP2", "result": 16, "unit": "nM"}]}, {"smiles": "CCn1cc2c(Cl)c(-c3c[nH]c4nc(N5[C@H]6CC[C@@H]5[C@@H](F)[C@@H](N)C6)n(C)c(=O)c34)ccc2n1", "note": "[Example 197, 2-[(1R,2S,3S,5S)-3-amino-2-fluoro-8-azabicyclo[3.2.1]octan-8-yl]-5-(4-chloro-2-ethyl-2H-indazol-5-yl)-3-methyl-3H,4H,7H-pyrrolo[2,3-d]pyrimidin-4-one hydrochloride]", "values": [{"measurement": "IC50", "setting": "[1]", "result": 0.032, "unit": "µM"}, {"measurement": "IC50", "setting": "SHP2", "result": 12, "unit": "nM"}]}, {"smiles": "CN(C)c1ccc2ccc(-c3c[nH]c4nc(N5[C@H]6CC[C@@H]5[C@H](N)C6)n(C)c(=O)c34)c(Cl)c2n1", "note": "[Example 198, 2-[(1R,2R,4S)-2-amino-7-azabicyclo[2.2.1]heptan-7-yl]-5-[8-chloro-2-(dimethylamino)quinolin-7-yl]-3-methyl-3H,4H,7H-pyrrolo[2,3-d]pyrimidin-4-one hydrochloride]", "values": [{"measurement": "IC50", "setting": "[1]", "result": 0.066, "unit": "µM"}, {"measurement": "IC50", "setting": "SHP2", "result": 13, "unit": "nM"}]}, {"smiles": "CNc1ccc2ccc(-c3c[nH]c4nc(N5[C@H]6CC[C@@H]5[C@H](N)C6)n(C)c(=O)c34)c(Cl)c2n1", "note": "[Example 199, 2-[(1R,2R,4S)-2-amino-7-azabicyclo[2.2.1]heptan-7-yl]-5-[8-chloro-2-(methylamino)quinolin-7-yl]-3-methyl-3H,4H,7H-pyrrolo[2,3-d]pyrimidin-4-one hydrochloride]", "values": [{"measurement": "IC50", "setting": "[1]", "result": 0.11, "unit": "µM"}, {"measurement": "IC50", "setting": "SHP2", "result": 14, "unit": "nM"}]}]}
